Experimental findings from patent US20210347823A1, “METHODS OF PHYSICOCHEMICAL-GUIDED PEPTIDE DESIGN AND NOVEL PEPTIDES DERIVED THEREFROM” (Massachusetts Institute of Technology, priority 2018, published 2021) are described below.

In series [1] the test system is P. aeruginosa strain PA01. As to the kind of experiment: MIC assay (broth microdilution) against P. aeruginosa PA01. Type of series: cell-based, Pseudomonas aeruginosa. Conditions: P. aeruginosa PA01, 24 h, 37° C. The source says: (§1) FIGS. 2A-2E. Design, physicochemical features and activity of Pol-CP—NH2 and Ala-scan analogs. FIG. 2A. Theoretical physicochemical properties of interest of the wild type and Ala-scan analogs, where H denotes hydrophobicity, μH is the hydrophobic moment, q represents the net charge and P/N is the ratio of polar/non-polar residues in the sequence. Top to bottom, left to right the sequences correspond to SEQ ID NOs: 1-13. FIG. 2B. Schematic of the in vitro biological activity experimental design. Briefly, 10^4 bacterial cells and serially diluted peptides (0-128 μmol L^−1) were added to a 96-well plate and incubated at 37° C. One day after the exposure, the solution in each well was measured in a microplate reader (600 nm) to check inhibition of bacteria compared to the untreated controls and presented as heat maps of antimicrobial activities (μmol L^−1) against four bacteria strains: E. coli strain BL21, S. aureus strain ATCC12600 and P. aeruginosa strains PA01, and PA14. Assays were performed in triplicates. FIG. 2C. Graph correlating MIC (μmol L^−1) averages vs H and (FIG. 2D) MIC (μmol L^−1) averages vs μH, where dots […] the dashed line show peptides with higher activity compared to the wild type, in which one can observe ranges of optimal activity in determined intervals of H and μH values. FIG. 2E. […]

For series [2], the system named is P. aeruginosa strain PA14. The experiment in a line: MIC assay (broth microdilution) against P. aeruginosa PA14. Conditions: P. aeruginosa PA14, 24 h, 37° C. Type of series: cell-based, Pseudomonas aeruginosa.
Description: as §1

The test system of series [3] is S. aureus strain ATCC12600. As to the kind of experiment: MIC assay (broth microdilution) against S. aureus ATCC12600. The series is classed as cell-based, Staphylococcus aureus. The settings on record: S. aureus ATCC12600, 24 h, 37° C.
Description: as §1

Series [4] relates to Escherichia coli strain BL21. As to the kind of experiment: MIC assay (broth microdilution) against E. coli BL21. Type of series: cell-based. The settings on record: E. coli BL21, 24 h, 37° C.
Description: as §1

Series [5] can be described thus: Stability assay in fetal bovine serum. Type of series: in vitro ADME. The settings on record: fetal bovine serum, 6 h. The method, then: FIGS. 6A-6B. Hemolysis and resistance to protease-mediated degradation of engineered peptides. FIG. 6A. Schematic of experimental design and hemolytic assay results of Pol-CP—NH2 and derivatives, where hemolytic activity was evaluated by incubating the peptides (0.1-100 μmol L^−1) with human red blood cells in PBS at room temperature for 1 h. Experiments were performed in triplicate, (*p<0.05). FIG. 6B. Resistance to degradation of Pol-CP—NH2 and analogs exposed to fetal bovine serum (FBS) proteases for 6 h. Experiments were done in triplicate.
Stability Assays. The stability assay was performed with GIBCO fetal bovine serum diluted to 25% in water. 20 ? L of a 10 mg mL^−1 peptide solution was added to 1 mL 25% serum solution and kept at 37° C. The experiments were made in triplicate and 100 ? L aliquots were taken at 0, 0.5, 1, 2, 4 and 6 h. 10 ? L of TFA was added to the aliquots and the new solution was kept at 5° C. for 10 min, after that it was centrifuged at 14,000 rpm for 15 min, according to Powell et al. (Powell M. F. et al., Pharm. Res. 10, 1268-1273 (1993)). The reaction kinetics was followed by liquid chromatography and the percentage of remaining peptide was calculated by integrating the peptide peak area.

Consider “H-ILGTILGLLKSL-NH2 [WT, ILGTILGLLKSL-NH2, reference compound]”, for which the MIC in series [1] worked out at 64.0 µM; in series [2], 64.0 µM; in series [3], 64.0 µM; in series [4], 8.0 µM.

For “H-ILGTILKLLKSL-NH2 [Peptide 16, ILGTILKLLKSL-NH2]”, the “resistance to protease-mediated degradation” value in series [5] is on record as “increased resistance to protease-mediated degradation”.
